Earlier results in patent US20220308074A1, “QUANTIFICATION METHOD OF VITAMIN D DERIVATIVE, ENZYME FOR QUANTIFICATION, COMPOSITION FOR QUANTIFICATION, KIT FOR QUANTIFICATION, ELECTRODE, SENSOR CHIP, AND SENSOR” (KIKKOMAN CORPORATION, priority 2019, published 2022).
Where two headings read alike, the source gives them in different places.

| Substance | half-life in the blood (in vivo) | half-life in the blood (blood) |
| --- | --- | --- |
| 25-hydroxyvitamin D | 2-3 weeks | – |
| 1,25-dihydroxyvitamin D | – | about 15 hours |
